Reference: the supplement of paper PMC8882468

How the values were obtained:
Assay in all cases: CTG-3D luminescence at 96 h relative to day-0 seeding control (ratio to day 0); higher = more growth / less cytotoxicity; PDxO 3D drug screen, 96 h, CTG-3D normalised to day-0 seeding control.
HCI-003.E2 = test system: HCI-003.E2 (organoid from an ER-positive breast cancer xenograft)
HCI-008 = test system: HCI-008 (organoid from a HER2-enriched breast cancer xenograft)
HCI-010 = test system: HCI-010 (organoid from a breast cancer xenograft)
HCI-012 = test system: HCI-012 (organoid from a breast cancer xenograft)

C[C@]12CC[C@@H]3c4ccc(O)cc4C[C@@H](CCCCCCCCC[S+]([O-])CCCC(F)(F)C(F)(F)F)[C@H]3[C@@H]1CC[C@@H]2O (some centres undefined) [fulvestrant]
HCI-003.E2
Conditions	CTG-3D luminescence at 96 h
12.5 pM	2.4
0.00025 µM	2.42
0.005 µM	2.09
0.1 µM	2.42
1 µM	1.9
10 µM	1.54
100 µM	1.41
625 fM	2.03

CTG-3D luminescence at 96 h
Conditions	12.5 pM	0.00025 µM	0.005 µM	0.1 µM	1 µM	10 µM	100 µM	625 fM
HCI-008, days in culture: 228	1.6	1.76	1.34	1.68	1.62	1.36	1.29	1.89
HCI-008, days in culture: 244	1.4	1.74	1.94	2.15	1.59	1.9	1.66	2.27
HCI-010, days in culture: 52	2.11	2.41	2.26	2.46	2.2	2.56	1.97	2.06
HCI-010, days in culture: 65	1.66	1.76	1.86	1.82	1.96	1.86	1.66	1.76
HCI-010, days in culture: 103	3.27	3.34	3.47	3.46	3.26	3.15	2.99	3.29
HCI-012, days in culture: 143	2.28	2.33	2.23	2.41	2.43	2.43	–	–
HCI-012, days in culture: 162	2.65	2.28	1.8	3.05	2.77	–	–	–
HCI-012, days in culture: 201	2.77	2.3	1.52	1.85	2.21	–	–	–
